From patent US20050250801A1, “Method of treating cancer with azaspirane compositions” (priority 2003, published 2005)
Counter-ions that a name gives are not always drawn.

Assay: Excretion of radioactivity after single oral administration to male rats, target dose 1 mg free base/kg
Format: in vivo, Sprague Dawley rats
Design: Excretion of Radioactivity: unit not given beside the values
Excerpt: [^14C] N,N,-diethyl-8,8-dipropyl-2-azaspiro[4,5]decane-2-propanamine dimaleate salt, (“Compound II”) with a specific activity of 91 uCi/mg and chemical purity >99%, and non-radiolabeled dimaleate salt of N,N,-diethyl-8,8-dipropyl-2-azaspiro[4,5]decane-2-propanamine dimaleate (Compound 1) chemical purity >98%, respectively, were used in this study. The site of the radiocarbon label in Compound II is depicted by an asterisk in Formula II. The non-radiolabeled material was used for reference purposes. The radiolabeled material was stored at ca […] in the dark and the non-radiolabeled material at ca −20° C. in the dark.
Three healthy male Sprague Dawley rats (Crl:CD(SD)BR), age ca 8-9 weeks, body weights at dosing 237-255 g, were supplied by Charles River (UK) Limited. The animals were housed in holding cages suitable for this species for 8 days prior to use. SDS Rat and Mouse Maintenance Diet No. 1, (Special Diets Services, Witham Essex), and mains quality water were available ad libitum throughout. The diet and water supplied to the animals were routinely analyzed for quality and no problems were detected. Holding and study areas had automatic control of light cycle and temperature. The actual range of temperature measured during the study was 17-25° C. with relative humidity measured at 60%.
The dose was prepared for oral administration on the day of dosing. […]
For each rat, an aliquot of the dose solution was administered orally by gavage. […] For each dose, the combined weight of dose and dosing equipment were recorded prior to dosing and the discharged dosing equipment was weighed after dosing. The concentration of radioactive material in each dose solution was also determined.
Immediately following dosing, the rats were placed into all glass metabolism cages suitable for the quantitative collection of excreta and expired air. All samples were collected into individual, uniquely labeled containers.
[…] The collection containers were cooled by solid CO2 during the first 48 hours after dosing.
[…] Collection containers were cooled by solid CO2 during the first 48 hours.
At the time of each feces collection, each cage was washed with water (ca 750 mL) and the washings were retained for radioassay. During the periods 0-24 h and 24-48 hours after dosing, expired air was passed through 2 serial traps containing ethanolamine:ethoxyethaonol (3:7, v/v) in order to effect the removal of CO2. The trap solvent was sampled for radioassay at the end of each collection period.
At 168 hours post dose, each animal was killed by CO2 narcosis and cervical dislocation. Gastrointestinal tracts were removed and retained separately from the carcasses in preparation for radioassay.
All urine and feces samples were stored frozen ([…]) prior to and after analysis. Cage washes were stored at room temperature until analysis was complete and were then discarded. All carcasses and gastro-intestinal tracts were stored frozen at ca-20° C. prior to analysis.
Duplicate aliquots of urine (ca 0.3 mL) and cage washings (ca 1 mL) were dispensed, diluted to 1 mL with distilled water (if considered necessary) and mixed with Quickzint 1 scintillation fluid (10 mL; Zinsser Analytic Maidenhead, UK).
Feces were homogenised in 1 to 2 volumes of water with the sample and homogenate weight recorded. Duplicate aliquots (ca 0.3) were taken from each sample and dispensed onto combustopads contained in combustocones (Can berra Packard Limited, Pangbourne, UK). When dry, these samples were combusted using a Packard Tri-Carb 306 Automatic Sample Oxidiser. The resultant ^14CO2 generated was collected by absorption in Carbo-Sorb® (8 mL; Can berra Packard Limited) to which Permafluor®E^+ scintillation fluid (10 mL; Can berra Packard Limited) was added.
For each rat, the carcass and gastro-intestinal tract with contents were solubilised in Soluene 350 (Canberra Packard). When dissolved, portions of the digest (ca 0.1 mL) were taken for liquid scintillation spectrometry. […]

## CCCC1(CCC)CCC2(CCN(CCCN(CC)CC)C2)CC1 [Compound II, [^14C] N,N,-diethyl-8,8-dipropyl-2-azaspiro[4,5]decane-2-propanamine dimaleate salt]
0-48 hours collection
  Dose recovered in expired air: Less than 0.2%
Cage Wash 0-24 hours, #1 male
  Excretion of Radioactivity: 0.1
Cage Wash 0-24 hours, #2 male
  Excretion of Radioactivity: 0.1
Cage Wash 0-24 hours, #3 male
  Excretion of Radioactivity: *<0.1
Cage Wash 0-24 hours, Mean
  Excretion of Radioactivity: ^+0.1
Cage Wash 0-168 hours, #1 male
  Excretion of Radioactivity: 0.7
Cage Wash 0-168 hours, #2 male
  Excretion of Radioactivity: 1.0
Cage Wash 0-168 hours, #3 male
  Excretion of Radioactivity: 1.3
Cage Wash 0-168 hours, Mean
  Excretion of Radioactivity: 1.0
Cage Wash 24-48 hours, #1 male
  Excretion of Radioactivity: 0.1
Cage Wash 24-48 hours, #2 male
  Excretion of Radioactivity: <0.1
Cage Wash 24-48 hours, #3 male
  Excretion of Radioactivity: 0.1
Cage Wash 24-48 hours, Mean
  Excretion of Radioactivity: 0.1
Cage Wash 48-72 hours, #1 male
  Excretion of Radioactivity: <0.1
Cage Wash 48-72 hours, #2 male
  Excretion of Radioactivity: 0.2
Cage Wash 48-72 hours, #3 male
  Excretion of Radioactivity: 0.2
Cage Wash 48-72 hours, Mean
  Excretion of Radioactivity: 0.1
Cage Wash 72-96 hours, #1 male
  Excretion of Radioactivity: 0.1
Cage Wash 72-96 hours, #2 male
  Excretion of Radioactivity: 0.2
Cage Wash 72-96 hours, #3 male
  Excretion of Radioactivity: 0.3
Cage Wash 72-96 hours, Mean
  Excretion of Radioactivity: 0.2
Cage Wash 96-120 hours, #1 male
  Excretion of Radioactivity: 0.1
Cage Wash 96-120 hours, #2 male
  Excretion of Radioactivity: 0.2
Cage Wash 96-120 hours, #3 male
  Excretion of Radioactivity: 0.2
Cage Wash 96-120 hours, Mean
  Excretion of Radioactivity: 0.2
Cage Wash 120-144 hours, #1 male
  Excretion of Radioactivity: 0.1
Cage Wash 120-144 hours, #2 male
  Excretion of Radioactivity: 0.1
Cage Wash 120-144 hours, #3 male
  Excretion of Radioactivity: 0.3
Cage Wash 120-144 hours, Mean
  Excretion of Radioactivity: 0.2
Cage Wash 144-168 hours, #1 male
  Excretion of Radioactivity: 0.2
Cage Wash 144-168 hours, #2 male
  Excretion of Radioactivity: 0.2
Cage Wash 144-168 hours, #3 male
  Excretion of Radioactivity: 0.2
Cage Wash 144-168 hours, Mean
  Excretion of Radioactivity: 0.2
Cage Washings, 168 hour collection period, #3 male
  Recovery of Radioactivity: *1.3 % administered dose
Cage Washings, 168 hour collection period, Mean
  Recovery of Radioactivity: ^+1.0 % administered dose
Carcass, at 168 hours, #1 male
  Recovery of Radioactivity: 11.3 % administered dose
Carcass, at 168 hours, #2 male
  Recovery of Radioactivity: 14.1 % administered dose
Carcass, at 168 hours, #3 male
  Recovery of Radioactivity: 14.9 % administered dose
Carcass, at 168 hours, Mean
  Recovery of Radioactivity: 13.5 % administered dose
Expired air 1, #1 male
  Recovery of Radioactivity: *<0.1 % administered dose
Expired air 1, #2 male
  Recovery of Radioactivity: *<0.1 % administered dose
Expired air 1, #3 male
  Recovery of Radioactivity: *<0.1 % administered dose
Expired air 1, Mean
  Recovery of Radioactivity: ^+<0.1 % administered dose
Expired air 2, #1 male
  Recovery of Radioactivity: *<0.1 % administered dose
Expired air 2, #2 male
  Recovery of Radioactivity: *<0.1 % administered dose
Expired air 2, #3 male
  Recovery of Radioactivity: *<0.1 % administered dose
Expired air 2, Mean
  Recovery of Radioactivity: ^+<0.1 % administered dose
Feces 0-24 hours, #1 male
  Excretion of Radioactivity: 18.2
Feces 0-24 hours, #2 male
  Excretion of Radioactivity: 14.7
Feces 0-24 hours, #3 male
  Excretion of Radioactivity: 17.7
Feces 0-24 hours, Mean
  Excretion of Radioactivity: 16.9
Feces 0-168 hours, #1 male
  Excretion of Radioactivity: 64.0
Feces 0-168 hours, #2 male
  Excretion of Radioactivity: 65.7
Feces 0-168 hours, #3 male
  Excretion of Radioactivity: 66.7
Feces 0-168 hours, Mean
  Excretion of Radioactivity: 65.5
Feces 24-48 hours, #1 male
  Excretion of Radioactivity: 16.3
Feces 24-48 hours, #2 male
  Excretion of Radioactivity: 17.2
Feces 24-48 hours, #3 male
  Excretion of Radioactivity: 14.5
Feces 24-48 hours, Mean
  Excretion of Radioactivity: 16.0
Feces 48-72 hours, #1 male
  Excretion of Radioactivity: 10.0
Feces 48-72 hours, #2 male
  Excretion of Radioactivity: 15.2
Feces 48-72 hours, #3 male
  Excretion of Radioactivity: 12.7
Feces 48-72 hours, Mean
  Excretion of Radioactivity: 12.6
Feces 72-96 hours, #1 male
  Excretion of Radioactivity: 7.5
Feces 72-96 hours, #2 male
  Excretion of Radioactivity: 7.8
Feces 72-96 hours, #3 male
  Excretion of Radioactivity: 8.0
Feces 72-96 hours, Mean
  Excretion of Radioactivity: 7.8
Feces 96-120 hours, #1 male
  Excretion of Radioactivity: 5.5
Feces 96-120 hours, #2 male
  Excretion of Radioactivity: 4.1
Feces 96-120 hours, #3 male
  Excretion of Radioactivity: 6.4
Feces 96-120 hours, Mean
  Excretion of Radioactivity: 5.3
Feces 120-144 hours, #1 male
  Excretion of Radioactivity: 3.5
Feces 120-144 hours, #2 male
  Excretion of Radioactivity: 3.5
Feces 120-144 hours, #3 male
  Excretion of Radioactivity: 4.3
Feces 120-144 hours, Mean
  Excretion of Radioactivity: 3.8
Feces 144-168 hours, #1 male
  Excretion of Radioactivity: 3.0
Feces 144-168 hours, #2 male
  Excretion of Radioactivity: 3.2
Feces 144-168 hours, #3 male
  Excretion of Radioactivity: 3.1
Feces 144-168 hours, Mean
  Excretion of Radioactivity: 3.1
GI Tract, at 168 hours, #1 male
  Recovery of Radioactivity: 13.8 % administered dose
GI Tract, at 168 hours, #2 male
  Recovery of Radioactivity: 13.3 % administered dose
GI Tract, at 168 hours, #3 male
  Recovery of Radioactivity: 10.5 % administered dose
GI Tract, at 168 hours, Mean
  Recovery of Radioactivity: 12.5 % administered dose
Total, 168 hour collection period, #1 male
  Recovery of Radioactivity: 96.7 % administered dose
Total, 168 hour collection period, #2 male
  Recovery of Radioactivity: 103.0 % administered dose
Total, 168 hour collection period, #3 male
  Recovery of Radioactivity: 103.2 % administered dose
Total, 168 hour collection period, Mean
  Recovery of Radioactivity: 101.0 % administered dose
Urine 0-6 hours, #1 male
  Excretion of Radioactivity: 0.1
Urine 0-168 hours, #1 male
  Excretion of Radioactivity: 6.9
Urine 0-168 hours, #2 male
  Excretion of Radioactivity: 8.9
Urine 0-168 hours, #3 male
  Excretion of Radioactivity: 9.8
Urine 0-168 hours, Mean
  Excretion of Radioactivity: 8.5
Urine 6-24 hours, #1 male
  Excretion of Radioactivity: 0.4
Urine 6-24 hours, #2 male
  Excretion of Radioactivity: 0.5
Urine 6-24 hours, #3 male
  Excretion of Radioactivity: 0.5
Urine 6-24 hours, Mean
  Excretion of Radioactivity: 0.5
Urine 24-48 hours, #1 male
  Excretion of Radioactivity: 1.0
Urine 24-48 hours, #2 male
  Excretion of Radioactivity: 1.4
Urine 24-48 hours, #3 male
  Excretion of Radioactivity: 1.4
Urine 24-48 hours, Mean
  Excretion of Radioactivity: 1.3
Urine 48-72 hours, #1 male
  Excretion of Radioactivity: 1.2
Urine 48-72 hours, #2 male
  Excretion of Radioactivity: 1.5
Urine 48-72 hours, #3 male
  Excretion of Radioactivity: 1.7
Urine 48-72 hours, Mean
  Excretion of Radioactivity: 1.5
Urine 72-96 hours, #1 male
  Excretion of Radioactivity: 1.3
Urine 72-96 hours, #2 male
  Excretion of Radioactivity: 1.6
Urine 72-96 hours, #3 male
  Excretion of Radioactivity: 2.0
Urine 72-96 hours, Mean
  Excretion of Radioactivity: 1.6
Urine 96-120 hours, #1 male
  Excretion of Radioactivity: 1.2
Urine 96-120 hours, #2 male
  Excretion of Radioactivity: 1.5
Urine 96-120 hours, #3 male
  Excretion of Radioactivity: 1.6
Urine 96-120 hours, Mean
  Excretion of Radioactivity: 1.4
Urine 120-144 hours, #1 male
  Excretion of Radioactivity: 0.9
Urine 120-144 hours, #2 male
  Excretion of Radioactivity: 1.3
Urine 120-144 hours, #3 male
  Excretion of Radioactivity: 1.3
Urine 120-144 hours, Mean
  Excretion of Radioactivity: 1.2
Urine 144-162 hours, #1 male
  Excretion of Radioactivity: 0.8
Urine 144-162 hours, #2 male
  Excretion of Radioactivity: 1.0
Urine 144-162 hours, #3 male
  Excretion of Radioactivity: 1.2
Urine 144-162 hours, Mean
  Excretion of Radioactivity: 1.0
At 168 hours
  Dose remaining in the carcass: ~13.5%
  Dose remaining in the gastro-intestinal tract: ~12.5%
By 168 hours after dosing
  Radioactive dose recovered in feces, mean: 65.5%
  Radioactive dose recovered in urine, mean: 8.5%
Full 168 hour collection period
  Dose recovered in excreta and cage washings, mean: 75.0%
total, range over animals, 168 hours
  Recovery of administered radioactive dose: 96.7-103.2%
Up to 120 hours after dosing
  Dose recovered in the excreta: ~66%
